Results from patent US8399475B2, “Crystalline and amorphous forms of naltrexone hydrochloride” (Mallinckrodt LLC, priority 2007, dated 2013).

Experiment: Solid-state stability / form conversion under wet or high humidity conditions

| SMILES | stability under wet and/or high humidity environments (compared with non-hydrated forms) | humidity at which the form converts to Form II (exposure of solid to humidity) |
| --- | --- | --- |
| Cl.O=C1CC[C@@]2(O)[C@H]3Cc4ccc(O)c5c4[C@@]2(CCN3CC2CC2)[C@H]1O5 [Form II, naltrexone hydrochloride] | more stable |  |
| Cl.O=C1CC[C@@]2(O)[C@H]3Cc4ccc(O)c5c4[C@@]2(CCN3CC2CC2)[C@H]1O5 [Form I, naltrexone hydrochloride] |  | above 70% RH. |
